# Source: patent US11865359B2, “Tumor imaging with x-rays and other high energy sources using as contrast agents photon-emitting phosphors having therapeutic properties” (IMMUNOLIGHT, LLC., priority 2014, dated 2024)
# How the values were obtained:
# [1] = clinical use; cited from earlier work
# cells = cells kept in the dark compared to those exposed to light; cited from earlier work
# tumor = test: Animal study, Rodent Syngeneic Model, tumor growth delay; format: in vivo, BALB/c female mice; settings: 50-100 uL intra-tumoral injection three times per week, 100 ug phosphor combination and 5 uM psoralen (AMT), X-Ray 75kVp, 30 mA, 3 min; repeated study same result
# Method: A phosphor system containing the following phosphor combination: LaPO4:Ce^3+, Tb^3+, 3Ca3(PO4)2.Ca(Fl, Cl)2:Sb^3+, Mn^2+, ZrO6-: Pr, Si, CaSiO3:Mn, Pb was used in an animal study based on a Rodent Syngeneic Model. In this animal study, a 50-100 uL intra-tumoral injection three times per week using 100 ug phosphor and 5 uM psoralen (AMT) and exposed to X-Ray dose of 75kVp using 30 mA for a duration of 3 min. The groups of mice in this study consisted of eight BALB/c female mice.
# B16 cancer cells = test: Clonogenic cell kill, visible phosphor mixtures under x-ray with and without psoralen (AMT); format: cell-based
# Description: Accordingly, combinations of more than two “visible” phosphors can be used in this invention. Discussed below are x-ray settings and mass ratios for clonogenic cell kill experiments. F1 refers to the insertion of an aluminum filter into the x-ray beam to act as a filter.
# FIGS. 34A and 34B show cell kill comparisons (shown here as the number of surviving colonies) between B16 cancer cells treated with and without psoralen (i.e., AMT) with different phosphor mixtures, but otherwise being x-ray stimulated and containing the multiple phosphor combinations noted above. On these drawings, LDLE=low xRT dose, low energy; HDHE=high xRT dose, high energy.
# On these drawings, LDLE=low xRT dose, low energy; HDHE=high xRT dose, high energy.
# sarcoma cell line KP1408 = test: Annexin V flow cytometry apoptosis assay, 1Gy 80kVp x-ray; settings: psoralen, phosphor and x-ray present
# sarcoma cell line KP1619 = test: as above; settings: psoralen, phosphor and x-ray present
smiles,measurement,setting,value
"Oc1cccc(-c2c3nc(c(-c4cccc(O)c4)c4ccc([nH]4)c(-c4cccc(O)c4)c4nc(c(-c5cccc(O)c5)c5ccc2[nH]5)CC4)C=C3)c1 [Foscan, Tetra (m-hydroxyphenyl) chlorin]",duration of skin photosensitivity,[1],approximately 2 weeks
NCCN.[Cl][Pt]([Cl])([I])[I] [[PtCl2I2(en)]],"cytotoxicity, dark compared to light",cells,no difference in cytotoxicity
Cc1oc2c(C)c3oc(=O)cc(C)c3cc2c1CN [AMT],tumor growth versus saline treated group,tumor,tumor growth delay
same,cell kill (surviving colonies) with versus without psoralen,"B16 cancer cells; Red/Yellow/Green and Flamingo/Yellow/Green phosphor mixtures, x-ray stimulated, FIGS. 34A and 34B",improved cell kill
same,cell kill with versus without psoralen,"B16 cancer cells; flamingo, yellow, green FYG phosphor combination, FIG. 36",pronounced cell kill
O=c1ccc2cc3ccoc3cc2o1 [psoralen],apoptosis,sarcoma cell line KP1408,high apoptosis
same,apoptosis,sarcoma cell line KP1619,high apoptosis
same,cell kill with versus without psoralen,"B16 cancer cells; higher kVp x-ray conditions, FIGS. 35A and 35B",does not show an increased kill
